“Also recorded” adds a separate entry of the source.
How the values were obtained:
[1] = system: human pancreatic cancer cells; test: Cell viability of human pancreatic cancer cells (FIG. 12A, B); type: cell-based
[2] = system: human normal pancreatic ductal epithelial (HPNE) cells; test: Cell viability of normal pancreatic ductal epithelial cells (FIG. 12C); type: cell-based
[3] = system: human breast cancer cells; test: Cell viability of human breast cancer cells (FIG. 12D); type: cell-based
[4] = system: human normal ductal epithelial (HMEC) cells; test: Cell viability of normal ductal epithelial cells (FIG. 12D); type: cell-based
Gli reporter = Gli reporter activity (FIG. 12E); type: cell-based
[5] = system: Gli1, Patched-1, Cyclin D1, Bcl-2, and Nanog; test: Expression of Gli target genes in breast cancer cells (FIG. 12F); type: cell-based
[6] = system: hepatocarcinoma (HCC)/liver cancer cells; test: Cell viability of hepatocarcinoma cells (FIG. 13); type: cell-based
human normal hepatocytes = test: Cell viability of normal hepatocytes (FIG. 13); type: cell-based
Gli pathway = Gli pathway in HCC (FIG. 13); type: cell-based
lung cancer A549 cells = test: Apoptosis in lung cancer cells (FIG. 14); type: cell-based
[7] = system: prostate cancer PC-3 cells; test: Apoptosis in prostate cancer cells (FIG. 14); type: cell-based
human brain cancer cells = test: Cell viability of human brain cancer cells (FIG. 15); type: cell-based
brain cancer stem cells = test: Cell viability of brain cancer stem cells (FIG. 15); type: cell-based, human
[8] = system: human prostate cancer cells; test: Combination cell viability in human prostate cancer cells (FIG. 16); type: cell-based; conditions: with PF05212384 (PI3K/mTOR dual inhibitor)
[9] = system: human breast cancer cells; test: Combination cell viability in human breast cancer cells (FIG. 17); type: cell-based
pancreatic cancer cells = test: Combination cell viability in pancreatic cancer cells (FIG. 17); type: cell-based, human
[10] = system: pancreatic cancer xenograft; test: Xenografted tumor growth, pancreatic cancer model (FIG. 18); type: in vivo
liver cancer xenograft = test: Xenografted tumor growth, liver cancer model (FIG. 18); type: in vivo
[11] = system: prostate cancer xenograft; test: Xenografted tumor growth, prostate cancer model (FIG. 18); type: in vivo
breast cancer xenograft = test: Xenografted tumor growth, breast cancer model (FIG. 18); type: in vivo
[12] = system: pancreatic cancer AsPC-1 cells; test: Apoptosis in pancreatic cancer AsPC-1 cells; type: cell-based
liver cancer HEPG2 cells = test: Apoptosis in liver cancer HEPG2 cells; type: cell-based
[13] = system: prostate cancer PC-3 cells; test: Combination apoptosis in prostate cancer PC-3 cells; type: cell-based; conditions: with PF05212384
[14] = system: prostate cancer DU145 cells; test: Combination apoptosis in prostate cancer DU145 cells; type: cell-based; conditions: with PF05212384
[15] = system: colorectal cancer HCT116 cells; test: Combination apoptosis in colorectal cancer HCT116 cells; type: cell-based; conditions: with PF05212384, listed as SST7
liver cancer HEP3B cells = test: Combination apoptosis in liver cancer HEP3B cells; type: cell-based; conditions: with PF05212384, listed as SST7
[16] = with histone deacetylase inhibitor SAHA

OC(CNc1ccc(Cl)cc1)CNc1ccc(-c2nc3ccccc3o2)cc1 (stereo not shown) [Compound 8, 1-(4-(benzo[d]oxazol-2-yl)phenylamino)-3-(4-chlorophenylamino)propane-2-ol] was tested, and the cell viability [1] was “inhibits cell viability”, the cell viability [2] was “has no effect” and the cell viability [3] was “inhibits cell viability”. For the same compound, the cell viability [4] was “has no effect”, the Gli reporter activity (Gli reporter) was “inhibits” and the “expression of Gli1, Patched-1, Cyclin D1, Bcl-2, and Nanog” value [5] was “inhibits”. The cell viability [6] was “inhibits cell viability”, the cell viability (human normal hepatocytes) was “has no effect” and the Gli pathway (Gli pathway) was “inhibits Gli pathway”. For the same compound, the apoptosis (lung cancer A549 cells) was “induces apoptosis”, the apoptosis [7] was “induces apoptosis” and the cell viability (human brain cancer cells) was “inhibits cell viability”. For the same compound, the cell viability (brain cancer stem cells) was “inhibits cell viability”, the “cell viability, combination” value [8] was “co-operates” and the “cell viability, combination” value ([9]; with PF05212384) was “co-operates”. The “cell viability, combination” value [9, 16] was “co-operates”, the “cell viability, combination” value (pancreatic cancer cells; with PF05212384) was “co-operates” and the “cell viability, combination” value (pancreatic cancer cells; [16]) was “co-operates”. For the same compound, the xenografted tumor growth [10] was “inhibits xenografted tumor growth”, the xenografted tumor growth (liver cancer xenograft) was “inhibits xenografted tumor growth” and the xenografted tumor growth [11] was “inhibits xenografted tumor growth”. The xenografted tumor growth (breast cancer xenograft) was “inhibits xenografted tumor growth”, the apoptosis [12] was “induces apoptosis” and the apoptosis (liver cancer HEPG2 cells) was “induces apoptosis”. The “apoptosis, combination” value [13] was “act in a cooperative manner to induce apoptosis”, the “apoptosis, combination” value [14] was “act in a cooperative manner to induce apoptosis” and the “apoptosis, combination” value [15] was “synergistic; also recorded: act in a cooperative manner to induce apoptosis”. For the same compound, the “apoptosis, combination” value (liver cancer HEP3B cells) was “synergistic; also recorded: act in a cooperative manner to induce apoptosis”.
